Laboratory results taken from paper PMC3270411 (Chemistry & biology, 2012).
Like-named read-outs stand apart in the source and are kept apart here.

Experiments:
ROCK1 = ROCK1 (Homo sapiens, UniProt Q13464); test: KiNativ cellular kinase profiling; type: cell-based; conditions: for Percent inhibition of kinase labeling by ATP-biotin: A375 cells, 1 μM, 3 hours, ROCK1, labeling site Other; for inhibition at 1 µM: A-375, read-out: Percent inhibition of kinase labeling by ATP-biotin
PIP5K3 = PIP5K3 (Homo sapiens, UniProt Q9Y2I7); test: KiNativ cellular kinase profiling; type: cell-based; conditions: for Percent inhibition of kinase labeling by ATP-biotin: A375 cells, 1 μM, 3 hours, PIP5K3, labeling site ATP; for inhibition at 1 µM: A-375, read-out: Percent inhibition of kinase labeling by ATP-biotin
Sequence of PIP5K3 (Q9Y2I7 whole entry): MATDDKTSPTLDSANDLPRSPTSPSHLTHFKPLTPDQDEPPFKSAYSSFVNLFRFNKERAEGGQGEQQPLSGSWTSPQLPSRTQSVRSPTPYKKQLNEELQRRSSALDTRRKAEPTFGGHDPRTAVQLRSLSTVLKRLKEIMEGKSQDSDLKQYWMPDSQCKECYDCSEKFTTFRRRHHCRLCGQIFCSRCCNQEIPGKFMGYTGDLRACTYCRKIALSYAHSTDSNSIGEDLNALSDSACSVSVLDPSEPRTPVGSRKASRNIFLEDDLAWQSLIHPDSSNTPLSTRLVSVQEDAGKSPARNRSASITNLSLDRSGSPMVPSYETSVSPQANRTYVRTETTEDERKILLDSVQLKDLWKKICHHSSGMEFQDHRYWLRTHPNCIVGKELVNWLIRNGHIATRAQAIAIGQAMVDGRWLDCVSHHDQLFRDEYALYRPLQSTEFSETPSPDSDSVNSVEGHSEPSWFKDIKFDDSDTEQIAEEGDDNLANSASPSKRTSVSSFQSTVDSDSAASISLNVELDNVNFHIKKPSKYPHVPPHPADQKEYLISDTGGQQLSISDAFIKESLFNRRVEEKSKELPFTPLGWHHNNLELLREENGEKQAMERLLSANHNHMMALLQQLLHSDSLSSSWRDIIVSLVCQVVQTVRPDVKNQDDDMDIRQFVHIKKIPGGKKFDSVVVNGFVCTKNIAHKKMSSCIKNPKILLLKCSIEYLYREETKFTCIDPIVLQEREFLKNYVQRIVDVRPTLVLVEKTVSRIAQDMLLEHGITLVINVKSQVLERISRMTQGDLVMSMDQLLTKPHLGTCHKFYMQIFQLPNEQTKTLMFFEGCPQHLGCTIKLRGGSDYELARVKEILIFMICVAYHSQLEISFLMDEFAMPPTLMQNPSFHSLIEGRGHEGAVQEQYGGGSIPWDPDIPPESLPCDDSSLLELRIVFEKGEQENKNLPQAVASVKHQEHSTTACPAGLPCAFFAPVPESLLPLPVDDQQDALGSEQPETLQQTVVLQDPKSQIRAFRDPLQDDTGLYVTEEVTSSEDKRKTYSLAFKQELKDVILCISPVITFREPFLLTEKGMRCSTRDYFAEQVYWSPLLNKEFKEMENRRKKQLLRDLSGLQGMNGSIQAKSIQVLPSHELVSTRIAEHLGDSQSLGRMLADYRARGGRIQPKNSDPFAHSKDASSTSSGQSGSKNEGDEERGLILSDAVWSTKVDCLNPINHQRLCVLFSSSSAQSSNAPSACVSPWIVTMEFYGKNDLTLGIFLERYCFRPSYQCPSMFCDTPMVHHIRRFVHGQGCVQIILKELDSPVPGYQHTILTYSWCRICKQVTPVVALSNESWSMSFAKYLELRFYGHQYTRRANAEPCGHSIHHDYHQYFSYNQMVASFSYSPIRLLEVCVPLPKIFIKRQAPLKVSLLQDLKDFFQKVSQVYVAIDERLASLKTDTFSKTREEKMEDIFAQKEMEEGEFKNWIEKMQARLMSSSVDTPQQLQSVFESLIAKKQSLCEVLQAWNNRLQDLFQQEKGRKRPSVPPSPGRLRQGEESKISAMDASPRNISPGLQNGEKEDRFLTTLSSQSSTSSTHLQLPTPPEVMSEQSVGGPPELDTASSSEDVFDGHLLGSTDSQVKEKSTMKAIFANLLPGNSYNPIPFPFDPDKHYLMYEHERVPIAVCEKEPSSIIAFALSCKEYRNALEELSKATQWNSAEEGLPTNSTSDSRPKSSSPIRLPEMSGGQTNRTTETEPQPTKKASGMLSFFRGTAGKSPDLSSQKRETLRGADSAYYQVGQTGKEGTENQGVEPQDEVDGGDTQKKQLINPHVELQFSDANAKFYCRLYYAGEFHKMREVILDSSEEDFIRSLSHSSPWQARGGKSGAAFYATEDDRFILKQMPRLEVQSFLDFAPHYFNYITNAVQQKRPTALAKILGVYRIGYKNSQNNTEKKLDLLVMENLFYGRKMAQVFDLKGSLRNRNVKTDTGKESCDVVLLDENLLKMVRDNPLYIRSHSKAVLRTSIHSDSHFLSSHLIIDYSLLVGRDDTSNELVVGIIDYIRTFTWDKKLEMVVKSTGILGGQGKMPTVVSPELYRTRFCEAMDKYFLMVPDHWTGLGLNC

TAO1,TAO3 = test: KiNativ cellular kinase profiling; type: cell-based; conditions: A375 cells, 1 μM, 3 hours; TAO1,TAO3, labeling site Lys2
ABL,ARG = test: KiNativ cellular kinase profiling; type: cell-based; conditions: A375 cells, 1 μM, 3 hours, labeling site Lys1
PKD1 = biological target: T1, PKD1 (Homo sapiens, UniProt Q15139); test: KiNativ cellular kinase profiling; type: cell-based; conditions: for Percent inhibition of kinase labeling by ATP-biotin: A375 cells, 1 μM, 3 hours, PKD1, labeling site Lys1; for inhibition at 1 µM: A-375, read-out: Percent inhibition of kinase labeling by ATP-biotin
T1 sequence (Q15139 1-912): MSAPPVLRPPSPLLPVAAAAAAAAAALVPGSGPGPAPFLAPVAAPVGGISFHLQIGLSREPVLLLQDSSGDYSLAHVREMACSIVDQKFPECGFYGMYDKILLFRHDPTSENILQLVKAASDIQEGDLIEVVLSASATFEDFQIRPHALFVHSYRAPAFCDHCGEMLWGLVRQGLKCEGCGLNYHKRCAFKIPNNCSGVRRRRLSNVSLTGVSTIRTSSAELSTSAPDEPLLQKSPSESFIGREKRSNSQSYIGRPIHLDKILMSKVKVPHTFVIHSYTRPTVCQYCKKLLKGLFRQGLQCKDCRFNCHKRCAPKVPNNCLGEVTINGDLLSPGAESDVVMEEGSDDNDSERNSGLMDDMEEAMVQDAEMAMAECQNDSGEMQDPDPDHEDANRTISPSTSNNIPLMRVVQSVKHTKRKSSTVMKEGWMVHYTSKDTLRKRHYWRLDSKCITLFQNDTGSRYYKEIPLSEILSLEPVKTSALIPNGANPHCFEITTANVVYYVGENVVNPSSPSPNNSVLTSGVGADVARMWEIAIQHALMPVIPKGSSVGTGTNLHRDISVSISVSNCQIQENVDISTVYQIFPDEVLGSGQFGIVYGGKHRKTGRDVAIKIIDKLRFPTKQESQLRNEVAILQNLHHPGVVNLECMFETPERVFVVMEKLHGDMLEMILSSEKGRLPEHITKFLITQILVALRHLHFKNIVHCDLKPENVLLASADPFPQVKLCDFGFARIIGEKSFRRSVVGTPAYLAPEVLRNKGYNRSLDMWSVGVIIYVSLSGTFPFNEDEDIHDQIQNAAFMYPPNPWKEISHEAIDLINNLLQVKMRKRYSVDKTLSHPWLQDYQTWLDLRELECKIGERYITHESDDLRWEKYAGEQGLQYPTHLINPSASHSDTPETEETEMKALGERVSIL

PKD1,PKD2 = test: KiNativ cellular kinase profiling; type: cell-based; conditions: A375 cells, 1 μM, 3 hours; PKD1,PKD2, labeling site Lys2
IKKb = biological target: T2, IKKb (Homo sapiens, UniProt O14920); test: KiNativ cellular kinase profiling; type: cell-based; conditions: for Percent inhibition of kinase labeling by ATP-biotin: A375 cells, 1 μM, 3 hours, IKKb, labeling site Lys2; for inhibition at 1 µM: A-375, read-out: Percent inhibition of kinase labeling by ATP-biotin
T2 sequence (O14920 1-756): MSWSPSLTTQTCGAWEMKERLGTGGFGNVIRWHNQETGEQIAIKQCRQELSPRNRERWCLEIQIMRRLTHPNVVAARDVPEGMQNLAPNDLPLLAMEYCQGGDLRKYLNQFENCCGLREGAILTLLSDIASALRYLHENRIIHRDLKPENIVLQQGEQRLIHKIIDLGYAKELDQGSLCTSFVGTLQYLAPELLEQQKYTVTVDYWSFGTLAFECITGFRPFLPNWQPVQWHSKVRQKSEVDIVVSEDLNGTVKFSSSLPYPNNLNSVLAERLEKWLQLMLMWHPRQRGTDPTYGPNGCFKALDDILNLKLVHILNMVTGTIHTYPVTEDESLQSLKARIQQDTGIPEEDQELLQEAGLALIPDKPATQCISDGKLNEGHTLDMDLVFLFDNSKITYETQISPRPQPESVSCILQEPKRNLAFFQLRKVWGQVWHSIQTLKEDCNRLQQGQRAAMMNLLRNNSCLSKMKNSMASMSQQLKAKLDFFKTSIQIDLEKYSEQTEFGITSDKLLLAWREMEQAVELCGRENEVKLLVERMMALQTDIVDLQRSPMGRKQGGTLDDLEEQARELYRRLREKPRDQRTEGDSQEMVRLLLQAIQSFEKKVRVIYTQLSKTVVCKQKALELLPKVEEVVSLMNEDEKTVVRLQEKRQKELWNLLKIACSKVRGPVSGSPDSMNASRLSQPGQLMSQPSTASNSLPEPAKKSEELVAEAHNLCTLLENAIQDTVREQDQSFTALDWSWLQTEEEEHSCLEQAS

ROCK1,ROCK2 = test: KiNativ cellular kinase profiling; type: cell-based; conditions: A375 cells, 1 μM, 3 hours; ROCK1,ROCK2, labeling site Lys2
ZC2/TNIK,ZC3/MINK = test: KiNativ cellular kinase profiling; type: cell-based; conditions: A375 cells, 1 μM, 3 hours, labeling site Lys2
AurA,AurB,AurC = test: KiNativ cellular kinase profiling; type: cell-based; conditions: A375 cells, 1 μM, 3 hours, labeling site ATP Loop
[1] = tested on: c-Jun phosphorylation (phospho Ser73) in A375 cells; type: cell-based
PFTAIRE1 = PFTAIRE1 (Homo sapiens, UniProt O94921); test: KiNativ cellular kinase profiling; type: cell-based; conditions: for Percent inhibition of kinase labeling by ATP-biotin: A375 cells, 1 μM, 3 hours, PFTAIRE1, labeling site Lys1; for inhibition at 1 µM: A-375, read-out: Percent inhibition of kinase labeling by ATP-biotin
Sequence of PFTAIRE1 (O94921 whole entry): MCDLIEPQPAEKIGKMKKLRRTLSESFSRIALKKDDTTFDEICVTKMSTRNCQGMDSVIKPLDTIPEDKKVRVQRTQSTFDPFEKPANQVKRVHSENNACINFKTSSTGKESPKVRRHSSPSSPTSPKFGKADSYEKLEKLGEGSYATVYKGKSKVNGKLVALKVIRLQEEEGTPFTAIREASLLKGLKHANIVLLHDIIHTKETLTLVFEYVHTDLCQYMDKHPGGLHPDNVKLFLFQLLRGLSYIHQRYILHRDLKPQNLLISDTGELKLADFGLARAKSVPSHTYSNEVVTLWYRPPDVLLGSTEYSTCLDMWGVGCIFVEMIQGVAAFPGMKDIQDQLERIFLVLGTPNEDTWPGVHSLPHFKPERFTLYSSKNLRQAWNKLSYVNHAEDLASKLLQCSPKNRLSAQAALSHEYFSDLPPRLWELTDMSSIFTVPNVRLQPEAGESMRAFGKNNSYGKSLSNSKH

KIT(V559D) = KIT(V559D) (Homo sapiens, UniProt P10721, V559D); test: KinomeScan dissociation constant; type: binding
Sequence of KIT(V559D) (P10721 26-976 V559D): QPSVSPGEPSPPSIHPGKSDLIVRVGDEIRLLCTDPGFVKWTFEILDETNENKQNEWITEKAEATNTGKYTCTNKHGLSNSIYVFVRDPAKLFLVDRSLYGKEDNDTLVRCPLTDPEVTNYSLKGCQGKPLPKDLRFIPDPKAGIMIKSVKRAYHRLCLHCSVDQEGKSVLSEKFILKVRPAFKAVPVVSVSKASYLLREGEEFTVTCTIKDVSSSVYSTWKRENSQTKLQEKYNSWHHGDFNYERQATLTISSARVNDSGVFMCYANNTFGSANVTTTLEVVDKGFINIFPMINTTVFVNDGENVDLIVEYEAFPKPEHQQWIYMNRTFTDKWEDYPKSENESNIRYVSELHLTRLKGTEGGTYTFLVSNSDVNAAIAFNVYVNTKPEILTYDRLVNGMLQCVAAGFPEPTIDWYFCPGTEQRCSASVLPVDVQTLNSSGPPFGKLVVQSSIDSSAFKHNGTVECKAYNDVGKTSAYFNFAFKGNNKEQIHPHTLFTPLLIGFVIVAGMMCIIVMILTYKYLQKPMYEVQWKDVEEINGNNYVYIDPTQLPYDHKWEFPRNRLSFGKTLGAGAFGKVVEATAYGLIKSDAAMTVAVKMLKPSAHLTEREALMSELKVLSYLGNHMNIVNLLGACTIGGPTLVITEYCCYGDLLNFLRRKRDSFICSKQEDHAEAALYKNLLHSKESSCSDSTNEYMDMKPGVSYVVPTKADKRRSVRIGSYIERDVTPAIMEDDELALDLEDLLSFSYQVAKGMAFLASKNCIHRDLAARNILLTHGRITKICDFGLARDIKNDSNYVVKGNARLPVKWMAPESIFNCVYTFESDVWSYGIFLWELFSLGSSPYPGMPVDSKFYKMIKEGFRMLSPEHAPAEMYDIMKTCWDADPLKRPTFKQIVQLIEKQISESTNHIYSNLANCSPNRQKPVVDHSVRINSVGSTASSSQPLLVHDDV

[2] = read-out: p-c-Jun EC50 (nM) A375, A375 cells, anisomycin stimulation, microscopy

Sequence of ROCK1 (Q13464 whole entry): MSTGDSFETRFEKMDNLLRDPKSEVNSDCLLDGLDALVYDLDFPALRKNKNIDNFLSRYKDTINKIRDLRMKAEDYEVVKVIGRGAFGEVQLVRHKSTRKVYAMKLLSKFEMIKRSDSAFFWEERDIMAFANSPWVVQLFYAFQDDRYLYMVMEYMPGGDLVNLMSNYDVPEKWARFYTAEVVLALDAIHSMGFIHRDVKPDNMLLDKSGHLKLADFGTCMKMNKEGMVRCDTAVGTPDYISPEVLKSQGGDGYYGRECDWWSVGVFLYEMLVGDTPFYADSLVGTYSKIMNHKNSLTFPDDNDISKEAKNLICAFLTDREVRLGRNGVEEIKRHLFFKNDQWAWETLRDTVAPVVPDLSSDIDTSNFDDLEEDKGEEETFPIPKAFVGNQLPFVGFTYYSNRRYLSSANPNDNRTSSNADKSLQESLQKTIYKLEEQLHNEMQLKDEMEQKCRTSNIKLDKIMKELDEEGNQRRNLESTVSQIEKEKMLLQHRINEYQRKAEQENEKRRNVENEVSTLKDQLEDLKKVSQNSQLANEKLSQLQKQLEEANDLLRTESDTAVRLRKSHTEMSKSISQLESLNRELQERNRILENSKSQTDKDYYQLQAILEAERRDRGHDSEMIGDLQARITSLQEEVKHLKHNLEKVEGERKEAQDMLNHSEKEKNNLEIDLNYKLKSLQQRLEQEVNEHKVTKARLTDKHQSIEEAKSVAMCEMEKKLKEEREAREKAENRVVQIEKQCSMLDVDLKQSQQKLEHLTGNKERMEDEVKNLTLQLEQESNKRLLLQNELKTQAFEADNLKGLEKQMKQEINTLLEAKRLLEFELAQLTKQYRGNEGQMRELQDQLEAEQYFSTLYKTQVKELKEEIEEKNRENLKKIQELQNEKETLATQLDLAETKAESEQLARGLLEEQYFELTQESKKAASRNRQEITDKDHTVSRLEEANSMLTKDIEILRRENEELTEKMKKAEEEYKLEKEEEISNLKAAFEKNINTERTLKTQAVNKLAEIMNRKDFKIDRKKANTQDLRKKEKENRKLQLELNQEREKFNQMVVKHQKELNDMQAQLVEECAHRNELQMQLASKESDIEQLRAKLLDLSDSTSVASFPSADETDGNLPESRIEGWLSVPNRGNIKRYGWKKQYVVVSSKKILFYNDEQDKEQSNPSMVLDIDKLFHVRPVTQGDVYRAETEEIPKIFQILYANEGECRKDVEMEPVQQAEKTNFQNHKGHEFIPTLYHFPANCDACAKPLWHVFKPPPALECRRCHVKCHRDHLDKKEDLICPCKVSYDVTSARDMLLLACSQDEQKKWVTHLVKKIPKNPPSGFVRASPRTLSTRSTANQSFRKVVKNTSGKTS

Q: What does the source list for CCC(=O)Nc1cccc(C(=O)Nc2ccc(Nc3nccc(-c4cccnc4)n3)cc2)c1 [JNK-IN-6]?
A: Percent inhibition of kinase labeling by ATP-biotin (ROCK1): 24.4%; Percent inhibition of kinase labeling by ATP-biotin (PIP5K3): 16.8%; Percent inhibition of kinase labeling by ATP-biotin (TAO1,TAO3): 35.8%; Percent inhibition of kinase labeling by ATP-biotin (ABL,ARG): −1.4%; Percent inhibition of kinase labeling by ATP-biotin (PKD1): 28.7%; Percent inhibition of kinase labeling by ATP-biotin (PKD1,PKD2): 15.9%; Percent inhibition of kinase labeling by ATP-biotin (IKKb): 33.4%; Percent inhibition of kinase labeling by ATP-biotin (ROCK1,ROCK2): 11.6%; Percent inhibition of kinase labeling by ATP-biotin (ZC2/TNIK,ZC3/MINK): 52.8%; Percent inhibition of kinase labeling by ATP-biotin (AurA,AurB,AurC): 4.9%; EC50 [1, 2]: 1900 nM; Percent inhibition of kinase labeling by ATP-biotin (PFTAIRE1): −6%

Q: For CN(C)C/C=C/C(=O)Nc1cccc(C(=O)Nc2ccc(Nc3nccc(-c4cccnc4)n3)cc2)c1 [JNK-IN-7], which inhibition at 1 µM (ROCK1) is on record?
A: The inhibition at 1 µM was -11.9%.

Q: What about the inhibition at 1 µM (PIP5K3) of the same molecule?
A: Its inhibition at 1 µM is 91.8%.

Q: What about the “Percent inhibition of kinase labeling by ATP-biotin” value (“Percent inhibition” below) (TAO1,TAO3) of the same molecule?
A: The value was 13.1%.

Q: What about the “Percent inhibition” value (ABL,ARG) of the same molecule?
A: The value was 1.9%.

Q: What about the inhibition at 1 µM (PKD1) of the same molecule?
A: Its inhibition at 1 µM is 2%.

Q: What about the Kd (KIT(V559D)) of the same molecule?
A: Its Kd is 48 nM.

Q: What about the “Percent inhibition” value (PKD1,PKD2) of the same molecule?
A: The value was 18.2%.

Q: What about the inhibition at 1 µM (IKKb) of the same molecule?
A: Its inhibition at 1 µM is -10.1%.

Q: What about the “Percent inhibition” value (ROCK1,ROCK2) of the same molecule?
A: Its value is −21.5%.

Q: And the “Percent inhibition” value (ZC2/TNIK,ZC3/MINK)?
A: Its value is 31%.

Q: What about the “Percent inhibition” value (AurA,AurB,AurC) of the same molecule?
A: Its value is 19.1%.

Q: And the inhibition at 1 µM (PFTAIRE1)?
A: Its inhibition at 1 µM is 75.3%.

Q: Cc1cc(NC(=O)c2cccc(NC(=O)/C=C/CN(C)C)c2)ccc1Nc1nccc(-c2cccnc2)n1 [JNK-IN-8] was tested. Which inhibition at 1 µM (ROCK1) did it give?
A: Its inhibition at 1 µM is 10%.

Q: What about the inhibition at 1 µM (PIP5K3) of the same molecule?
A: The inhibition at 1 µM was 18.7%.

Q: And the “Percent inhibition” value (TAO1,TAO3)?
A: The value was 2.9%.

Q: What about the “Percent inhibition” value (ABL,ARG) of the same molecule?
A: Its value is −2.7%.

Q: What about the inhibition at 1 µM (PKD1) of the same molecule?
A: The inhibition at 1 µM was 8.6%.

Q: And the Kd (KIT(V559D))?
A: The Kd was 92 nM.

Q: What about the “Percent inhibition” value (PKD1,PKD2) of the same molecule?
A: Its value is −3%.

Q: And the inhibition at 1 µM (IKKb)?
A: The inhibition at 1 µM was -6.5%.

Q: What about the “Percent inhibition” value (ROCK1,ROCK2) of the same molecule?
A: Its value is −17.1%.

Q: What about the “Percent inhibition” value (ZC2/TNIK,ZC3/MINK) of the same molecule?
A: Its value is 45.1%.

Q: What about the “Percent inhibition” value (AurA,AurB,AurC) of the same molecule?
A: Its value is −11.3%.

Q: What about the EC50 ([1]; Homo sapiens, A-375, read-out: p-c-Jun EC50 (nM) A375) of the same molecule?
A: The EC50 was 338 nM.

Q: What about the inhibition at 1 µM (PFTAIRE1) of the same molecule?
A: Its inhibition at 1 µM is 38.1%.

Q: For CN(C)C/C=C/C(=O)Nc1cccc(C(=O)Nc2ccc(Nc3nccc(-c4c(-c5ccccc5)nn5ccccc45)n3)cc2)c1 [JNK-IN-11], which inhibition at 1 µM (ROCK1) is on record?
A: The inhibition at 1 µM was -8.2%.

Q: And the inhibition at 1 µM (PIP5K3)?
A: Its inhibition at 1 µM is 99.3%.

Q: And the “Percent inhibition” value (TAO1,TAO3)?
A: The value was 34.1%.

Q: What about the “Percent inhibition” value (ABL,ARG) of the same molecule?
A: Its value is 56.1%.

Q: What about the inhibition at 1 µM (PKD1) of the same molecule?
A: The inhibition at 1 µM was 29.4%.

Q: And the Kd (KIT(V559D))?
A: Its Kd is 8.2 nM.

Q: What about the “Percent inhibition” value (PKD1,PKD2) of the same molecule?
A: The value was 10.4%.

Q: And the inhibition at 1 µM (IKKb)?
A: Its inhibition at 1 µM is -11.2%.

Q: And the “Percent inhibition” value (ROCK1,ROCK2)?
A: Its value is −33.9%.

Q: What about the “Percent inhibition” value (ZC2/TNIK,ZC3/MINK) of the same molecule?
A: Its value is 75.9%.

Q: What about the “Percent inhibition” value (AurA,AurB,AurC) of the same molecule?
A: Its value is 53.8%.

Q: And the inhibition at 1 µM (PFTAIRE1)?
A: Its inhibition at 1 µM is 12.8%.

Q: How did the “Percent inhibition” value (ROCK1) turn out when CN(C)C/C=C/C(=O)Nc1cccc(C(=O)Nc2ccc(Nc3nccc(/C(C#N)=C4\Nc5ccccc5S4)n3)cc2)c1 [JNK-IN-12] was run?
A: Its value is −97%.

Q: What about the “Percent inhibition” value (PIP5K3) of the same molecule?
A: The value was −11.4%.

Q: And the “Percent inhibition” value (TAO1,TAO3)?
A: The value was −10.8%.

Q: What about the “Percent inhibition” value (ABL,ARG) of the same molecule?
A: The value was 7.9%.

Q: What about the “Percent inhibition” value (PKD1) of the same molecule?
A: Its value is −21.6%.

Q: What about the “Percent inhibition” value (PKD1,PKD2) of the same molecule?
A: Its value is −39.3%.

Q: And the “Percent inhibition” value (IKKb)?
A: Its value is −97.5%.

Q: And the “Percent inhibition” value (ROCK1,ROCK2)?
A: Its value is −91%.

Q: What about the “Percent inhibition” value (ZC2/TNIK,ZC3/MINK) of the same molecule?
A: The value was −36.2%.

Q: And the “Percent inhibition” value (AurA,AurB,AurC)?
A: Its value is −20.9%.

Q: And the EC50 [1, 2]?
A: The EC50 was 134 nM.

Q: What about the “Percent inhibition” value (PFTAIRE1) of the same molecule?
A: Its value is 25.7%.
